Values of other authors, collected in patent US9125814B2, “Biocompatible crosslinked hydrogels, drug-loaded hydrogels and methods of using the same” (Angiotech Pharmaceuticals, Inc., priority 2008, dated 2015).

pKa: ~8.1
SMILES: CCCCN1CCCCC1C(=O)Nc1c(C)cccc1C (racemic) [racemic bupivacaine, 1-butyl-N-(2,6-dimethylphenyl)piperidine-2-carboxamide]
